Assay results as given in PubChem BioAssay (NCI).
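Cultured in 96-well plates, cells were exposed to test compound for 48 hours across five concentrations. At the GI50, growth is halved. TGI is the concentration that stops growth completely.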

Assays:
Assay in all cases: NCI anticancer screen, dose series, 48 h
[1] = test system: HT29 colon
[2] = test system: SK-MEL-28 melanoma
[3] = test system: OVCAR-8 ovarian
[4] = test system: NCI/ADR-RES ovarian
[5] = test system: SF-268 CNS
[6] = test system: NCI-H226 lung
[7] = test system: OVCAR-3 ovarian
[8] = test system: HL-60(TB) leukemia
[9] = test system: RPMI-8226 leukemia
[10] = test system: PC-3 prostate
[11] = test system: HCC-2998 colon
[12] = test system: DU-145 prostate
[13] = test system: SR leukemia
[14] = test system: EKVX NSCLC
[15] = test system: SF-295 CNS
[16] = test system: U251 CNS
[17] = test system: SK-MEL-5 melanoma
[18] = test system: HS 578T breast
[19] = test system: HOP-62 NSCLC
[20] = test system: 786-0 renal
[21] = test system: CAKI-1 renal
[22] = test system: MALME-3M melanoma
[23] = test system: MDA-MB-435
[24] = test system: KM12 colon
[25] = test system: OVCAR-4 ovarian
[26] = test system: BT-549 breast
[27] = test system: COLO 205 colon
[28] = test system: NCI-H522 lung
[29] = test system: A498 renal
[30] = test system: A549 NSCLC
[31] = test system: MCF7 breast
[32] = test system: K-562 leukemia
[33] = test system: SF-539 CNS
[34] = test system: UO-31 renal
[35] = test system: MOLT-4 leukemia
[36] = test system: SNB-19 CNS
[37] = test system: HCT-116 colon
[38] = test system: M14 melanoma
[39] = test system: SK-MEL-2 melanoma
[40] = test system: NCI-H460 lung
[41] = test system: T-47D breast
[42] = test system: LOX IMVI melanoma
[43] = test system: UACC-62 melanoma
[44] = test system: MDA-MB-231 breast
[45] = test system: HCT-15 colon
[46] = test system: HOP-92 NSCLC
[47] = test system: SN12C renal
[48] = test system: CCRF-CEM leukemia
[49] = test system: SW-620 colon
[50] = test system: UACC-257 melanoma
[51] = test system: IGROV1 ovarian
[52] = test system: OVCAR-5 ovarian
[53] = test system: SK-OV-3 ovarian
[54] = test system: TK-10 renal
[55] = test system: ACHN renal
[56] = test system: NCI-H23 lung
[57] = test system: SNB-75 CNS

COc1cc(C2C3=C(COC3=O)Nc3cc4c(cc32)CCC4)cc2c1OCO2 (centres undefined)
GI50 [1]: 29.9 nM | TGI [1]: 845 nM | GI50 [2]: 69.1 nM | TGI [2]: 24400 nM | GI50 [3]: 39.9 nM | TGI [3]: 1990 nM | GI50 [4]: 34.5 nM | TGI [4]: 881 nM | GI50 [5]: 55.8 nM | TGI [5]: 6580 nM | GI50 [6]: 39.1 nM | TGI [6]: 1600 nM | GI50 [7]: 23.1 nM | TGI [7]: 47 nM | GI50 [8]: 33 nM | TGI [8]: 724 nM | GI50 [9]: 53.1 nM | TGI [9]: > 49200 nM | GI50 [10]: 49 nM | TGI [10]: 18200 nM | GI50 [11]: 260 nM | TGI [11]: 4880 nM | GI50 [12]: 41.1 nM | TGI [12]: 296 nM | GI50 [13]: 45.3 nM | TGI [13]: > 34500 nM | GI50 [14]: 486 nM | TGI [14]: 43300 nM | GI50 [15]: 30.8 nM | TGI [15]: 10800 nM | GI50 [16]: 45.2 nM | TGI [16]: 4610 nM | GI50 [17]: 38.2 nM | TGI [17]: 264 nM | GI50 [18]: 42.5 nM | TGI [18]: 21300 nM | GI50 [19]: 47.1 nM | TGI [19]: 12000 nM | GI50 [20]: 88.1 nM | TGI [20]: 14600 nM | GI50 [21]: 157 nM | TGI [21]: 38700 nM | GI50 [22]: 19100 nM | TGI [22]: 74600 nM | GI50 [23]: 23.7 nM | TGI [23]: 60.4 nM | GI50 [24]: 30.5 nM | TGI [24]: 120 nM | GI50 [25]: 71.7 nM | TGI [25]: 19800 nM | GI50 [26]: 311 nM | TGI [26]: 42200 nM | GI50 [27]: 40.7 nM | TGI [27]: 139 nM | GI50 [28]: 20 nM | TGI [28]: 56.2 nM | GI50 [29]: 25 nM | TGI [29]: 96.4 nM | GI50 [30]: 61 nM | TGI [30]: 12700 nM | GI50 [31]: 34.9 nM | TGI [31]: 13300 nM | GI50 [32]: 37.5 nM | TGI [32]: 12300 nM | GI50 [33]: 32.8 nM | TGI [33]: 8730 nM | GI50 [34]: 1050 nM | TGI [34]: 26500 nM | GI50 [35]: 49.6 nM | TGI [35]: 15600 nM | GI50 [36]: 72.4 nM | TGI [36]: 23300 nM | GI50 [37]: 42.8 nM | TGI [37]: 1310 nM | GI50 [38]: 74.3 nM | TGI [38]: 3480 nM | GI50 [39]: 98.9 nM | TGI [39]: 3470 nM | GI50 [40]: 39.4 nM | TGI [40]: 6180 nM | GI50 [41]: 12000 nM | TGI [41]: 59800 nM | GI50 [42]: 49.6 nM | TGI [42]: 12100 nM | GI50 [43]: 51 nM | TGI [43]: 17700 nM | GI50 [44]: 57.7 nM | TGI [44]: 5110 nM | GI50 [45]: 72.8 nM | TGI [45]: > 62100 nM | GI50 [46]: 12700 nM | TGI [46]: 40500 nM | GI50 [47]: 59.5 nM | TGI [47]: 20200 nM | GI50 [48]: 45.2 nM | TGI [48]: 14600 nM | GI50 [49]: 41.3 nM | TGI [49]: 13200 nM | GI50 [50]: 1130 nM | TGI [50]: 63300 nM | GI50 [51]: 61.7 nM | TGI [51]: 17100 nM | GI50 [52]: 231 nM | TGI [52]: 41700 nM | GI50 [53]: 33.5 nM | TGI [53]: 1010 nM | GI50 [54]: 10100 nM | TGI [54]: 32400 nM | GI50 [55]: 114 nM | TGI [55]: 21400 nM | GI50 [56]: 42.7 nM | TGI [56]: 3040 nM | GI50 [57]: 25.9 nM | TGI [57]: 18800 nM
